Patent US12678446B2 (PFIZER INC., priority 2020, dated 2026)
Where two headings read alike, the source gives them in different places.

Legend:
[1] = Liver microsomal stability, human; format: in vitro ADME; details: human liver microsomes 0.5 mg/mL, 1 μM compound, NADPH, up to 45 min; for half-life at 1 μM: pooled liver microsomes, pH 7.4, read-out: Liver Microsomal Stability t½
Description: (§1) Compounds were subjected to the following assays to investigate liver microsomal stability and hepatocyte stability.
(§2) Pooled liver microsomes were purchased from a reputable commercial supplier and stored at −80° C. prior to use. Microsomes (final protein concentration 0.5 mg/mL), 0.1 M phosphate buffer pH 7.4 and test compound (final substrate concentration 1 μM; final DMSO concentration 0.25%) were pre-incubated at 37° C. prior to the addition of NADPH (final concentration 1 mM) to initiate the reaction. The final incubation volume was 50 μL. A control incubation was included for each compound tested where 0.1 M phosphate buffer pH 7.4 was added instead of NADPH (minus NADPH). Two control compounds were included with each species. All incubations were performed singularly for each test compound. Each compound was incubated for 0, 5, 15, 30 and 45 min. The control (minus NADPH) was incubated for 45 min only. The reactions were stopped by transferring incubate into acetonitrile at the appropriate time points, in a 1:3 ratio. The termination plates are centrifuged at 3,000 rpm for 20 min at 4° C. to precipitate the protein. Following protein precipitation, the sample supernatants were combined in cassettes of up to 4 compounds, internal standard added, and samples analysed by LC-MS/MS. From a plot of ln peak area ratio (compound peak area/internal standard peak area) against time, the gradient of the line was determined. Subsequently, half-life (t1/2) and intrinsic clearance (CLint) were calculated.

[2] = Liver microsomal stability, rat; format: in vitro ADME; details: rat liver microsomes 0.5 mg/mL, 1 μM compound, NADPH, up to 45 min; for half-life at 1 μM: pooled liver microsomes, pH 7.4, read-out: Liver Microsomal Stability t½
Description: as §1, §2

[3] = Hepatocyte stability, human; format: in vitro ADME; details: human hepatocytes 0.5×10^6 viable cells/mL, 3 μM compound, up to 60 min; for half-life at 3 μM: cryopreserved pooled hepatocytes, read-out: Liver Hepatocyte Stability t½
Description: as §1
(§3) Hepatocyte Incubation: Experimental Procedure
(§4) Cryopreserved pooled hepatocytes were purchased from a reputable commercial supplier and stored in liquid nitrogen prior to use. Williams E media supplemented with 2 mM L-glutamine and 25 mM HEPES and test compound (final substrate concentration 3 μM; final DMSO concentration 0.25%) are pre-incubated at 37° C. prior to the addition of a suspension of cryopreserved hepatocytes (final cell density 0.5×10^6 viable cells/mL in Williams E media supplemented with 2 mM L-glutamine and 25 mM HEPES) to initiate the reaction. The final incubation volume is 500 μL. Two control compounds were included with each species, alongside appropriate vehicle control. The reactions are stopped by transferring 50 μL of incubate to 100 μL acetonitrile containing internal standard at the appropriate time points. Samples were removed at 6 time points (0, 5, 15, 30, 45 and 60 min) over the course of a 60 min experiment. The termination plates are centrifuged at 2500 rpm at 4° C. for 30 min to precipitate the protein. Following protein precipitation, the sample supernatants were combined in cassettes of up to 4 compounds and analysed using generic LC-MS/MS conditions. From a plot of ln peak area ratio (compound peak area/internal standard peak area) against time, the gradient of the line is determined. Subsequently, half-life (t½) and intrinsic clearance (CLint) were calculated.

[4] = Hepatocyte stability, dog; format: in vitro ADME; details: dog hepatocytes 0.5×10^6 viable cells/mL, 3 μM compound, up to 60 min; for half-life at 3 μM: cryopreserved pooled hepatocytes, read-out: Liver Hepatocyte Stability t½
Description: as §1, §3, §4

[5] = Hepatocyte stability, rat; format: in vitro ADME; details: rat hepatocytes 0.5×10^6 viable cells/mL, 3 μM compound, up to 60 min; for half-life at 3 μM: cryopreserved pooled hepatocytes, read-out: Liver Hepatocyte Stability t½
Description: as §1, §3, §4

cell toxicity CC50 = format: cell-based; details: human; Hep-G2 cells; mean of at least two experiments; read-out: Cell Cytotoxicity CC50
[6] = system: RSV (RSV A2 ECACC, 0709161v); assay: RSV plaque reduction assay; format: cell-based, respiratory syncytial virus; details: mean of at least two experiments unless noted (n = 1)
Method in brief: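 Hep-G2 monolayers infected with 100 PFU/well RSV A2 premixed with eight serial compound dilutions (2 h, 37° C.), then kept 2 days under CMC overlay with compound in DMEM/2% FBS. Plaques immunostained (HRP/TrueBlue) and counted; % infection versus virus control gives EC50, mean of at least two experiments, rounded.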

[7] = Rat pharmacokinetics in vivo (IV 1 mg/kg, PO 10 mg/kg); parameters: species or system Male rats [Sprague Dawley (SD)]; details: male SD rat; for AUC(0-t): read-out: PO AUClast; for Cmax: PO 10 mg/kg study; for concentration at 8 h: read-out: C 8 h; for F: PO 10 mg/kg vs IV 1 mg/kg
Description: The pharmacokinetics of compounds were studied in vivo in rats at doses of 1 mg/kg (IV) and 10 mg/kg (PO).
Male rats [Sprague Dawley (SD)] surgically prepared with a jugular vein cannula were treated with experimental compounds via intravenous administration (IV; n=3; 1 mg/kg) or oral administration (PO; n=3; 10 mg/kg). Compounds were formulated as a solution in 40:60 dimethylacetamide:saline (IV administration) and a solution of 10% DMSO, 10% cremaphor in water (80%) (PO administration). […] Serial blood samples were collected via the cannula at 0.02, 0.08, 0.25, 0.5, 1, 2, 4, 6, 8 and 24 h post IV dosing of compound, and at 0.08, 0.25, 0.5, 1, 2, 4, 6, 8 and 24 h post oral dosing of compound, and plasma was prepared by centrifugation and stored immediately at −80° C. Samples were subsequently thawed, prepared for analysis by protein precipitation with acetonitrile, and analysed by tandem LCMS using electrospray ionisation using a matrix-matched calibration curve. PK parameters were calculated from the resulting data.

[8] = Liver microsomal stability, dog; format: in vitro ADME; details: dog liver microsomes 0.5 mg/mL, 1 μM compound, NADPH, up to 45 min; for half-life at 1 μM: pooled liver microsomes, pH 7.4, read-out: Liver Microsomal Stability t½
Description: as §1, §2

Hep-G2 cells = assay: cell toxicity CC50; format: cell-based; details: mean of at least two experiments, read-out: Cell Cytotoxicity CC50
RSV = details: Antimicrobial Agents and Chemotherapy, September 2007, 3346-3353; cited from earlier work
[9] = human respiratory syncytial virus, HepG2, read-out: RSV A2 Plaque EC50, RSV A2 in Hep-G2 cells
[10] = Sprague Dawley, plasma, IV 1 mg/kg
[11] = Sprague Dawley, plasma, IV 1 mg/kg, read-out: IV t½ (converted)
[12] = Sprague Dawley, plasma, IV 1 mg/kg, read-out: Vd
[13] = Sprague Dawley, plasma, PO 10 mg/kg
[14] = Sprague Dawley, plasma, PO 10 mg/kg, read-out: PO t½ (converted)
[15] = Sprague Dawley, plasma, IV 1 mg/kg, read-out: Cmax

Compound | half-life at 1 μM [1] [h] | half-life at 1 μM [2] [h] | half-life at 3 μM [3] [h] | half-life at 3 μM [4] [h] | half-life at 3 μM [5] [h] | CC50 (cell toxicity CC50) [nM] | EC50 [6, 9] [nM] | clearance [7, 10] [mL/min/kg] | half-life [7, 11] [h] | Vd [7, 12] [L/kg] | AUC(0-t) [7, 13] [ng·h/mL] | half-life [7, 14] [h] | Cmax [7, 15] [ng/mL] | concentration at 8 h ([7]; Sprague Dawley, plasma at 8 h) [ng/mL] | F [7] [%] | half-life at 1 μM [8] [h] | other results
CCc1ccc(-c2nn3c(c2C(=O)N[C@H]2N=C(c4ccccc4)c4cccc(F)c4NC2=O)OCCC3)cn1 [Example 106, 2-(6-Ethylpyridin-3-yl)-N-[(3S)-9-fluoro-2-oxo-5-phenyl-1,3-dihydro-1,4-benzodiazepin-3-yl]-6,7-dihydro-5H-pyrazolo[5,1-b][1,3]oxazine-3-carboxamide] | 3.1 | 0.815 | > 3.1 | 2 | 1.59 | > 25000 | 48 | 14.6 | 1.2 | 0.7 | 5690 | 3.6 | 1030 | 271 | 59.4 | 1.82 | –
(5R)-2-(3-Fluoropyridin-4-yl)-5-methyl-N-[(3S)-9-fluoro-2-oxo-5-phenyl-1,3-dihydro-1,4-benzodiazepin-3-yl]-6,7-dihydro-5H-pyrazolo[5,1-b][1,3]oxazine-3-carboxamide [Example 51] | – | – | – | – | – | – | – | – | – | – | – | – | – | – | 44.3 | – | Liver Microsomal Stability t½ [1]: 1.04 h; Liver Microsomal Stability t½ [2]: 1.1 h; Liver Hepatocyte Stability t½ [3]: 1.47 h; Liver Hepatocyte Stability t½ [4]: 16.4 h; Liver Hepatocyte Stability t½ [5]: 1.88 h; CC50 (Hep-G2 cells): > 25000 nM; EC50 ([6]; RSV A2 in Hep-G2 cells, read-out: RSV A2 Plaque EC50): 80 nM; Cl ([7]; IV 1 mg/kg): 46.4 mL/min/kg; IV t½ ([7]; IV 1 mg/kg): 0.48 h; Vd ([7]; IV 1 mg/kg): 1.0 L/kg; PO AUClast ([7]; PO 10 mg/kg): 1582 ng·h/mL; PO t½ ([7]; PO 10 mg/kg): 1.1 h; Cmax ([7]; IV 1 mg/kg): 730 ng/mL; C 8 h ([7]; plasma at 8 h): 7.6 ng/mL; Liver Microsomal Stability t½ [8]: > 2.33 h
C[C@@H]1CCn2nc(-c3ccccc3F)c(C(=O)N[C@H]3N=C(c4ccccc4)c4cccc(F)c4NC3=O)c2O1 [Example 25, (5R)-N-[(3S)-9-fluoro-2-oxo-5-phenyl-1,3-dihydro-1,4-benzodiazepin-3-yl]-2-(2-fluorophenyl)-5-methyl-6,7-dihydro-5H-pyrazolo[5,1-b][1,3]oxazine-3-carboxamide] | 16.8 | > 2.33 | 4.73 | > 3.1 | 1.8 | > 25000 | 24 | 4.7 | 2.2 | 0.6 | 14900 | 3.4 | 1880 | 812 | 40.3 | > 2.33 | –
O=C(Nc1ccccc1F)N[C@H]1N=C(c2ccccc2)c2ccccc2NC1=O [RSV604] | – | – | – | – | – | – | – | – | – | – | – | – | – | – | – | – | anti-RSV activity (RSV): sub-micromolar anti-RSV activity
C[C@H]1CCn2nc(-c3ccccc3F)c(C(=O)N[C@H]3N=C(c4ccccc4)c4cccc(F)c4NC3=O)c2O1 [Example 27, (5S)-N-[(3S)-9-fluoro-2-oxo-5-phenyl-1,3-dihydro-1,4-benzodiazepin-3-yl]-2-(2-fluorophenyl)-5-methyl-6,7-dihydro-5H-pyrazolo[5,1-b][1,3]oxazine-3-carboxamide] | 2.25 | 1.4 | > 3.1 | > 3.1 | 8.08 | > 25000 | 20 | 24.9 | 0.72 | 0.9 | 3140 | 2.8 | 960 | 75.9 | 49.6 | 7.72 | –
